Key:
Experiment in all cases: IA-DTB cysteine engagement
Type in all cases: binding
Conditions in all cases: 22Rv1 cells, 20 μM probe, 1 h, relative to DMSO
XXYLT1_C10 = target: T1, XXYLT1_C10 (Homo sapiens, UniProt Q8NBI6)
T1 construct: endogenous in cells; host or cells: 22Rv1
T1 sequence (Q8NBI6 1-393): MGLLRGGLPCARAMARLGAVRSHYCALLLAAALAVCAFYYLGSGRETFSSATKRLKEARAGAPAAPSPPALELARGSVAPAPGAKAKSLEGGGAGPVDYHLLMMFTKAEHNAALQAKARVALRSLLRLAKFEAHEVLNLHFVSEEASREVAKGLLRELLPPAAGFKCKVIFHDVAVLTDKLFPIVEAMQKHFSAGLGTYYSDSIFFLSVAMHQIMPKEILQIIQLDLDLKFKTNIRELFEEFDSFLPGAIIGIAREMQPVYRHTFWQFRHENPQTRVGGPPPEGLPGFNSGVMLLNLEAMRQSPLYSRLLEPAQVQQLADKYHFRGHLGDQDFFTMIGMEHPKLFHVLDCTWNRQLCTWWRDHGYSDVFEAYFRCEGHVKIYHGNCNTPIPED
Method in brief: (§1)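 Read-out is TMT-based cysteine engagement, expressed as each reporter ion intensity divided by the average of the DMSO channels. Before that, probe-treated cell lysates were capped with IA-DTB, digested, enriched on streptavidin and TMT-tagged. PSMs with DMSO summed intensity <10,000 or DMSO CV >0.5 were excluded.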

STK11_C418 = target: T2, STK11_C418 (Homo sapiens, UniProt Q15831)
T2 construct: endogenous in cells; host or cells: 22Rv1
T2 sequence (Q15831 1-433): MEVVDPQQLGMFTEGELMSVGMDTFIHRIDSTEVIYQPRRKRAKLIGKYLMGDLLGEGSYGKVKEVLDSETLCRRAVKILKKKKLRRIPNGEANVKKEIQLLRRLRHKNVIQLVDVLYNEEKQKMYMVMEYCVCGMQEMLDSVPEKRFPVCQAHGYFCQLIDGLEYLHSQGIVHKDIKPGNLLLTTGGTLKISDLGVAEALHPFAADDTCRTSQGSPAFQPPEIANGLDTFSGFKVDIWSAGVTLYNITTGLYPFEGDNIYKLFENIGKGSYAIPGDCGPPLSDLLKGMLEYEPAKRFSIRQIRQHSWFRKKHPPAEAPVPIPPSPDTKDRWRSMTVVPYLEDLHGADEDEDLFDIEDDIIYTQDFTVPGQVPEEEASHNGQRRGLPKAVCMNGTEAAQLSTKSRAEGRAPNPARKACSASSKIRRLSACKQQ
Method in brief: as §1

CCNE2_C109 = target: T3, CCNE2_C109 (Homo sapiens, UniProt O96020)
T3 construct: endogenous in cells; host or cells: 22Rv1
T3 sequence (O96020 whole entry): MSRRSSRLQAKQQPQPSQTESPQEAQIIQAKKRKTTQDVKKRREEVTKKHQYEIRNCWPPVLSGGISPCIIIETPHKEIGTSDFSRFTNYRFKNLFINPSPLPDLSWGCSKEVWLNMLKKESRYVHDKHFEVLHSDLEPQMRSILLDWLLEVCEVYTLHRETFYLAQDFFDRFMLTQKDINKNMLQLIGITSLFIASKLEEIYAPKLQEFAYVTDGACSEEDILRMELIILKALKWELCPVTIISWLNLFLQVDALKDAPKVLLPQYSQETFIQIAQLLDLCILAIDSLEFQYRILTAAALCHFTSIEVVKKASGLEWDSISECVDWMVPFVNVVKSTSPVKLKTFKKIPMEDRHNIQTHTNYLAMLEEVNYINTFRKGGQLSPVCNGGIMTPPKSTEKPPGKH
Method in brief: as §1

ABCA2_C2385 = target: T4, ABCA2_C2385 (Homo sapiens, UniProt Q9BZC7)
T4 construct: endogenous in cells; host or cells: 22Rv1
T4 sequence (Q9BZC7 whole entry): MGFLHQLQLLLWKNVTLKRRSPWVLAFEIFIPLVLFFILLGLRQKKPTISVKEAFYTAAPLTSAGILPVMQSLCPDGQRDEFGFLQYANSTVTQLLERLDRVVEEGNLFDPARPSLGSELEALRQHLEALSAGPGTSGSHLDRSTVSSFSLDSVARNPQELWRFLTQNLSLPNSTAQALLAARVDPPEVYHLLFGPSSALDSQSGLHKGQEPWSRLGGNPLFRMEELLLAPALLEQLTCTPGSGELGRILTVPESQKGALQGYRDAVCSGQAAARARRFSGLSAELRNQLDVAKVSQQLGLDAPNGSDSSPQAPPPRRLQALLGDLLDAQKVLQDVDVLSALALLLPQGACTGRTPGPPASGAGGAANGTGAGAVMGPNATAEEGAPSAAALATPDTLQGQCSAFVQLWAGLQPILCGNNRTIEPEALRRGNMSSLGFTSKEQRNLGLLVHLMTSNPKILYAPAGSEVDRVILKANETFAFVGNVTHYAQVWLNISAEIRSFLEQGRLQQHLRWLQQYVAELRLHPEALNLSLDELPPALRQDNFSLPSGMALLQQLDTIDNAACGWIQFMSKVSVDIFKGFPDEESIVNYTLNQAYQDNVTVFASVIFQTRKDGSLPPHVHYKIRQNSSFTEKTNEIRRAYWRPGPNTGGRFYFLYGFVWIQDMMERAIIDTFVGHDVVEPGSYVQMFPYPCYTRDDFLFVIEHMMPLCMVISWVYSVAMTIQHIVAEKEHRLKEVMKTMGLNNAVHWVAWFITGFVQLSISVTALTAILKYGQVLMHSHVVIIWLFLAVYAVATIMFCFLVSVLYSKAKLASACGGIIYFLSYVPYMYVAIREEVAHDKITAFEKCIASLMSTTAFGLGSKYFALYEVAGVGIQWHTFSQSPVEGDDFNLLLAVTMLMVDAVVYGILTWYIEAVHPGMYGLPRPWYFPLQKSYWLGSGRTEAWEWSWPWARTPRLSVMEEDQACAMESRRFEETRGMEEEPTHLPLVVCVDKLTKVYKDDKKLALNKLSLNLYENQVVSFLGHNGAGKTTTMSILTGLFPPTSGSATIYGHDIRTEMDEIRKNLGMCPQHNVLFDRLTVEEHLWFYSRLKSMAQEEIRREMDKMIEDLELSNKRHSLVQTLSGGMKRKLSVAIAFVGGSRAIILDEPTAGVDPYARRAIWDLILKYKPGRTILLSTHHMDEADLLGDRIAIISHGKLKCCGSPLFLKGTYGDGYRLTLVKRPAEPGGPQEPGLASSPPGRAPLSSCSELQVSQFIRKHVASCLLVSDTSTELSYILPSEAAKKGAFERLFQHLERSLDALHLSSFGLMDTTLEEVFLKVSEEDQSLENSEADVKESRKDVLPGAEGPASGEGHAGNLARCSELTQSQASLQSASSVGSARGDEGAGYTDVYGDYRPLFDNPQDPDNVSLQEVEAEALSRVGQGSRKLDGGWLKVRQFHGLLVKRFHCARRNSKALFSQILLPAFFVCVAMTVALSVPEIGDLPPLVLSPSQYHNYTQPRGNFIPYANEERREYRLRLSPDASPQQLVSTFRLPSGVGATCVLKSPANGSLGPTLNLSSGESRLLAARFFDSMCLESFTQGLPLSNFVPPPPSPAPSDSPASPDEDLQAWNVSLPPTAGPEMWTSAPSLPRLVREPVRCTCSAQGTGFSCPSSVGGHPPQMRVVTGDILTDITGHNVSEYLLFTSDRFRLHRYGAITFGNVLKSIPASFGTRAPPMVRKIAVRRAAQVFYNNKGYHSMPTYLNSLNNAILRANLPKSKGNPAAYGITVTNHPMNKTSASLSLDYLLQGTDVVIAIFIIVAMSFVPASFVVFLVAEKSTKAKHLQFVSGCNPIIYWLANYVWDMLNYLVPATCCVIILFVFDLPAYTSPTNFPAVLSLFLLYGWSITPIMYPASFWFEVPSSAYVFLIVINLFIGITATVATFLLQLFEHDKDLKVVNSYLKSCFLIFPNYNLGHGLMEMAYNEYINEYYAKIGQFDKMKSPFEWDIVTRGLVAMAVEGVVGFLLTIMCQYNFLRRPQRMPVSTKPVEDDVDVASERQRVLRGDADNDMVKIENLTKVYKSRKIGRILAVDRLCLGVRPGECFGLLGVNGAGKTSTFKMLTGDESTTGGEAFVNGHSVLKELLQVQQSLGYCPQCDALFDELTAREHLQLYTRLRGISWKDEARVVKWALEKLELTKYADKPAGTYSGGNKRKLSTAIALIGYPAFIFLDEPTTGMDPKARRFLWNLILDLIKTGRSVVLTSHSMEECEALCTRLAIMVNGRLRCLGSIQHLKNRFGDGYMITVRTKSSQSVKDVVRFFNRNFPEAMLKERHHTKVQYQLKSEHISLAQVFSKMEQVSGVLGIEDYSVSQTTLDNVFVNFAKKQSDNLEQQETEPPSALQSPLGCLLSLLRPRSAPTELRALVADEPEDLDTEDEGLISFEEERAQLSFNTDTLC
Method in brief: as §1

GPAT4_C325 = target: T5, GPAT4_C325 (Homo sapiens, UniProt Q86UL3)
T5 construct: endogenous in cells; host or cells: 22Rv1
T5 sequence (Q86UL3 38-456): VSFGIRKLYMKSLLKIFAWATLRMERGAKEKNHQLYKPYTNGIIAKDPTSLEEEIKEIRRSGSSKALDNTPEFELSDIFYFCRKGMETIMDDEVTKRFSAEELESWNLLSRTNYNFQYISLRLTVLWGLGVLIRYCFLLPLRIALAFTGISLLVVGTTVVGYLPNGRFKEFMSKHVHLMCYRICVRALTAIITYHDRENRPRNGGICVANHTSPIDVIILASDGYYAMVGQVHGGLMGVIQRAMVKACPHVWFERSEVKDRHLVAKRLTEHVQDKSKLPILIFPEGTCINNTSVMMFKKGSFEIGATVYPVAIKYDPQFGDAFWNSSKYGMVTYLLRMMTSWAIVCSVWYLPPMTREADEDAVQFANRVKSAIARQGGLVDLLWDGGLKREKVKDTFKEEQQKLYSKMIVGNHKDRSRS
Method in brief: as §1

% engagement XXYLT1_C10 (XXYLT1_C10) [%] | % engagement STK11_C418 (STK11_C418) [%] | % engagement CCNE2_C109 (CCNE2_C109) [%] | % engagement ABCA2_C2385 (ABCA2_C2385) [%] | % engagement GPAT4_C325 (GPAT4_C325) [%] | Compound
93 | 61.5 | 42.75 | 72.5 | 93.75 | C=CC(=O)N1C[C@H](c2ccc(Br)cc2)[C@H]1C(=O)Nc1cccc2cccnc12 [MY-3B, (2S,3S)-1-acryloyl-3-(4-bromophenyl)-N-(quinolin-8-yl)azetidine-2-carboxamide]
77 | 66.5 | 76.75 | 78 | 80 | C=CC(=O)N1C[C@H](c2ccc(Br)cc2)[C@@H]1C(=O)Nc1cccc2cccnc12 [MY-1B, (2R,3S)-1-acryloyl-3-(4-bromophenyl)-N-(quinolin-8-yl)azetidine-2-carboxamide]
67 | 38 | 21.75 | 42.5 | 67.25 | C=CC(=O)N1C[C@H](c2ccc(Br)cc2)[C@H]1C(=O)Nc1cccc2cccnc12 [MY-3A, (2S,3S)-1-acryloyl-3-(4-bromophenyl)-N-(quinolin-8-yl)azetidine-2-carboxamide]
76.5 | 83.5 | 77 | 33 | 83.25 | C=CC(=O)N1C[C@@H](c2ccc(Br)cc2)[C@H]1C(=O)Nc1cccc2cccnc12 [MY-1A, (2S,3R)-1-acryloyl-3-(4-bromophenyl)-N-(quinolin-8-yl)azetidine-2-carboxamide]
